Reference: ChEMBL document CHEMBL4622850, “Discovery and optimization of new oxadiazole substituted thiazole RORγt inverse agonists through a bioisosteric amide replacement approach” (Bioorg Med Chem Lett, 2020)
Converted amounts (≈) assume the structure as drawn.

Columns and labels:
[1] = target: T1, Nuclear receptor subfamily 1 group I member 2 (Homo sapiens, UniProt O75469); test: Activation of PXR (unknown origin) at 5 uM; type: ADME
T1 sequence (O75469 whole entry): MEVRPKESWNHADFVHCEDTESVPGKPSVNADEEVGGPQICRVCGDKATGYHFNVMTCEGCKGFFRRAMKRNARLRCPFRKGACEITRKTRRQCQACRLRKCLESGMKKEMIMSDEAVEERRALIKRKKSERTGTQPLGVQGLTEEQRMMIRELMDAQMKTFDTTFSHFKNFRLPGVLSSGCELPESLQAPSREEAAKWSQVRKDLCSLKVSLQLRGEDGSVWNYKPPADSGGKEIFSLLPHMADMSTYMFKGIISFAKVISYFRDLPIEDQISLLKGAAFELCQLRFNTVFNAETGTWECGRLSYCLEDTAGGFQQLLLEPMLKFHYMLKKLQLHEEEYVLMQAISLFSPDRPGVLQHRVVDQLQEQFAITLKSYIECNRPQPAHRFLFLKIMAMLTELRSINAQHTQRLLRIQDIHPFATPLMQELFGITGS

[2] = Solubility of compound by pH 2; type: physicochemical; conditions: buffer
[3] = Solubility of compound by pH 7; type: physicochemical; conditions: buffer
[4] = Cmax in rat at 5 mg/kg, po; type: ADME, organism-based; set-up: dose 5 mg/kg, route oral; conditions: in vivo
[5] = AUC in rat at 5 mg/kg, po; type: ADME, organism-based; conditions: in vivo
[6] = Clearance in rat at 1 mg/kg, iv; type: ADME, organism-based; conditions: in vivo
[7] = Volume of distribution in rat at 1 mg/kg, iv; type: ADME, organism-based; conditions: in vivo
[8] = Half life in rat at 1 mg/kg, iv; type: ADME, organism-based; conditions: in vivo
[9] = Oral bioavailability in rat at 1 mg/kg; type: ADME, organism-based; conditions: in vivo
[10] = target: T2, Nuclear receptor ROR-gamma (Mus musculus, UniProt P51450); test: Inverse agonist activity at RORgammat in mouse whole blood assessed as reduction in IL-17a production; type: tissue-based
T2 sequence (P51450 whole entry): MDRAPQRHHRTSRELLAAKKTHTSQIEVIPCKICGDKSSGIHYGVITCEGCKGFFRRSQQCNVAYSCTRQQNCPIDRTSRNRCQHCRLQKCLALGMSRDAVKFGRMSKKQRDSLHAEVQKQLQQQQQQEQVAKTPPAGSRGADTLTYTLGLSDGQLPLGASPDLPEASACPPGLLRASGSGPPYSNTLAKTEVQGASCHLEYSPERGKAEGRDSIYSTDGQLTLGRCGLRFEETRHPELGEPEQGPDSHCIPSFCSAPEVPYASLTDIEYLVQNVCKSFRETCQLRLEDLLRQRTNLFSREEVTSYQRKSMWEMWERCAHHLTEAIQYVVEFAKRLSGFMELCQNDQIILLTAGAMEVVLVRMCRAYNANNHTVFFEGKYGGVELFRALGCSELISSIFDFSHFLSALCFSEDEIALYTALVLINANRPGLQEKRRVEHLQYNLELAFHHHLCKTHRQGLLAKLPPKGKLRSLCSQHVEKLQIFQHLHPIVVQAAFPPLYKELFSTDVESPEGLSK

Cytochrome P450 2C9 = Cytochrome P450 2C9 (Homo sapiens, UniProt P11712); test: Inhibition of CYP2C9 (unknown origin); type: ADME
Cytochrome P450 2C9, sequence (P11712 whole entry): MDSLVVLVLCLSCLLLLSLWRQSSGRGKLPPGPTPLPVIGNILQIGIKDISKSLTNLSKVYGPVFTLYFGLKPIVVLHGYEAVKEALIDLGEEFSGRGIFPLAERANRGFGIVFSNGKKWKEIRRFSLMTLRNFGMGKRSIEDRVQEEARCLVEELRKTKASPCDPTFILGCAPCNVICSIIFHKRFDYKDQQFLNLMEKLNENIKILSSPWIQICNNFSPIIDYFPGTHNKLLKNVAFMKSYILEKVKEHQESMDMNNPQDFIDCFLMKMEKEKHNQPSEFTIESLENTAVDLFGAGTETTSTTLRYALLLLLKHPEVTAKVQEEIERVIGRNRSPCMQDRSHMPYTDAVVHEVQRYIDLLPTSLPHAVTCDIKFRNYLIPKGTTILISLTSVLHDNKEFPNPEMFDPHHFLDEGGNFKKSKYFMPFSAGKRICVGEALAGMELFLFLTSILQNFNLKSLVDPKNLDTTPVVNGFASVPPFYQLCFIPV

[11] = Metabolic stability in human liver microsomes assessed as half life; type: ADME, Microsome
[12] = Metabolic stability in rat liver microsomes assessed as half life; type: ADME, Microsome
[13] = Protein binding in human plasma; type: ADME, cell-free; conditions: read-out: PPB (converted)
[14] = Protein binding in mouse plasma; type: ADME, cell-free; conditions: read-out: PPB (converted)
Cytochrome P450 2C8 = target: T3, Cytochrome P450 2C8 (Homo sapiens, UniProt P10632); test: Inhibition of CYP2C8 (unknown origin); type: ADME
T3 sequence (P10632 whole entry): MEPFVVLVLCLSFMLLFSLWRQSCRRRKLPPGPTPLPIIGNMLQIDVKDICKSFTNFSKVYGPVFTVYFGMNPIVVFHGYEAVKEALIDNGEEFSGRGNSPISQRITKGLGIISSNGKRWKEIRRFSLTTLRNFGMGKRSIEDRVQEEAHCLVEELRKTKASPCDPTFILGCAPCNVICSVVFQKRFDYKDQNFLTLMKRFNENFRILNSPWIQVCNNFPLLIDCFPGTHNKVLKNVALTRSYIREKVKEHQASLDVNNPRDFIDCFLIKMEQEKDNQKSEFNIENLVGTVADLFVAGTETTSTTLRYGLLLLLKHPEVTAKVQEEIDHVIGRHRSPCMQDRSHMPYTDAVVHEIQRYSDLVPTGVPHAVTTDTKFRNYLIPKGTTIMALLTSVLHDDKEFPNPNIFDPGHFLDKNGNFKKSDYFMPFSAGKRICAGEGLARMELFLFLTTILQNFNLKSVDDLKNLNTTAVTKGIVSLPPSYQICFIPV

[15] = target: T1, Nuclear receptor subfamily 1 group I member 2; test: Activation of PXR (unknown origin) at 1 uM; type: ADME
CYP3A4 [16] = target: T4, CYP3A4 (Homo sapiens, UniProt P08684); test: Inhibition of CYP3A4 (unknown origin) at 1 uM; type: ADME
T4 sequence (P08684 whole entry): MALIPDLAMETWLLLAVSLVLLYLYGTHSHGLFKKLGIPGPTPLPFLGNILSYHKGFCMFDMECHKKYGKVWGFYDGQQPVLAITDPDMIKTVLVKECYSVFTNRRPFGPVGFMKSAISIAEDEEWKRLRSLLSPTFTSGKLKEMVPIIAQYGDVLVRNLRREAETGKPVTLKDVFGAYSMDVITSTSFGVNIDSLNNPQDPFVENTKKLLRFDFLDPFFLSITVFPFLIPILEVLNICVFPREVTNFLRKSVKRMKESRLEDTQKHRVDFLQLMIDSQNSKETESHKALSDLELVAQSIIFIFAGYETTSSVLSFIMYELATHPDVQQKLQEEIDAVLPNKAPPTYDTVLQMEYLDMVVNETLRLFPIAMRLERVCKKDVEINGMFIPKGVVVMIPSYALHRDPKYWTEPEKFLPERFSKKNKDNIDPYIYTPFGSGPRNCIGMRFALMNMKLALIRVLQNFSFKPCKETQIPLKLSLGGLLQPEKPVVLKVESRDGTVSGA

CYP3A4 [17] = target: T4, CYP3A4; test: Inhibition of CYP3A4 (unknown origin) at 10 uM; type: ADME
[18] = Plasma concentration in mouse at 30 mg/kg, po measured after 0.5 hrs; type: ADME, organism-based
[19] = Plasma concentration in mouse at 30 mg/kg, po measured after 1 hr; type: ADME, organism-based
[20] = Plasma concentration in mouse at 30 mg/kg, po measured after 2 hrs; type: ADME, organism-based
[21] = Plasma concentration in mouse at 30 mg/kg, po measured after 4 hrs; type: ADME, organism-based
[22] = Plasma concentration in mouse at 30 mg/kg, po measured after 7 hrs; type: ADME, organism-based
[23] = Plasma concentration in mouse at 30 mg/kg, po measured after 24 hrs; type: ADME, organism-based
[24] = target: T5, Nuclear receptor ROR-gamma (Mus musculus) (UniProt P51450); test: In vivo inhibition of RORgammat in mouse assessed as reduction in IL-17a production at 30 mg/kg, po measured after 0.5 hrs relative to control; type: functional, organism-based
T5 sequence (whole entry): T2 sequence (P51450 whole entry)

[25] = target: T5, Nuclear receptor ROR-gamma (Mus musculus); test: In vivo inhibition of RORgammat in mouse assessed as reduction in IL-17a production at 30 mg/kg, po measured after 1 hr relative to control; type: functional, organism-based
[26] = target: T5, Nuclear receptor ROR-gamma (Mus musculus); test: In vivo inhibition of RORgammat in mouse assessed as reduction in IL-17a production at 30 mg/kg, po measured after 2 hrs relative to control; type: functional, organism-based
[27] = target: T5, Nuclear receptor ROR-gamma (Mus musculus); test: In vivo inhibition of RORgammat in mouse assessed as reduction in IL-17a production at 30 mg/kg, po measured after 4 hrs relative to control; type: functional, organism-based
[28] = target: T5, Nuclear receptor ROR-gamma (Mus musculus); test: In vivo inhibition of RORgammat in mouse assessed as reduction in IL-17a production at 30 mg/kg, po measured after 7 hrs relative to control; type: functional, organism-based
[29] = target: T5, Nuclear receptor ROR-gamma (Mus musculus); test: In vivo inhibition of RORgammat in mouse assessed as reduction in IL-17a production at 30 mg/kg, po measured after 24 hrs relative to control; type: functional, organism-based
[30] = Cmax in rat at 300 mg/kg, po measured on day 1; type: ADME, organism-based; set-up: dose 300 mg/kg, route oral; conditions: in vivo
[31] = AUC in rat at 300 mg/kg, po measured on day 1; type: ADME, organism-based; conditions: in vivo
[32] = Cmax in rat at 300 mg/kg, po measured on day 5; type: ADME, organism-based; set-up: dose 300 mg/kg, route oral; conditions: in vivo
[33] = AUC in rat at 300 mg/kg, po measured on day 5; type: ADME, organism-based; conditions: in vivo
Cytochrome P450 2C19 = Cytochrome P450 2C19 (Homo sapiens, UniProt P33261); test: Inhibition of CYP2C19 (unknown origin); type: ADME
Cytochrome P450 2C19, sequence (P33261 whole entry): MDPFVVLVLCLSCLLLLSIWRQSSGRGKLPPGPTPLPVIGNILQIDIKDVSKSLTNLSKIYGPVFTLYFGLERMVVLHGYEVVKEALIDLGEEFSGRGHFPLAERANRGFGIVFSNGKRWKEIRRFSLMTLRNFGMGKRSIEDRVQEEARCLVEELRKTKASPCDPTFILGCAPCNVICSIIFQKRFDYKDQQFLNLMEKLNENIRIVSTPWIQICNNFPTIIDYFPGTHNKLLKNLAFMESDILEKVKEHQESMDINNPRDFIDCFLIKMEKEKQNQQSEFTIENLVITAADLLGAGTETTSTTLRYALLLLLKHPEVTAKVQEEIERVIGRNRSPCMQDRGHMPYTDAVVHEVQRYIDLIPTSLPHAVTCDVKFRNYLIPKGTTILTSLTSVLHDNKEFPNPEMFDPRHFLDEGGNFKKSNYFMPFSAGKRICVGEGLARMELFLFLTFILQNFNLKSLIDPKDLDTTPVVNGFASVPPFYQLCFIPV

[34] = Protein binding in rat plasma; type: ADME, cell-free; conditions: read-out: PPB (converted)
[35] = Plasma concentration in mouse at 3 mg/kg, po measured after 1 hr; type: ADME, organism-based
[36] = target: T5, Nuclear receptor ROR-gamma (Mus musculus); test: In vivo inhibition of RORgammat in mouse assessed as reduction in IL-17a production at 3 mg/kg, po measured after 1 hr relative to control; type: functional, organism-based
[37] = Cmax in rat at 1000 mg/kg, po measured on day 1; type: ADME, organism-based; set-up: dose 1000 mg/kg, route oral; conditions: in vivo
[38] = AUC in rat at 1000 mg/kg, po measured on day 1; type: ADME, organism-based; conditions: in vivo
[39] = Cmax in rat at 1000 mg/kg, po measured on day 5; type: ADME, organism-based; set-up: dose 1000 mg/kg, route oral; conditions: in vivo
[40] = AUC in rat at 1000 mg/kg, po measured on day 5; type: ADME, organism-based; conditions: in vivo

Row | Structure (SMILES) | solubility [2] [µM] | solubility [3] [µM] | Cmax [4] [µM] | AUC [5] [µg·h/mL] | clearance [6] [mL/min/kg] | Vd [7] [L/kg] | half-life [8] [h] | bioavailability [9] [%] | IC50 [10] [µM] | half-life [11] [h] | half-life [12] [h] | fraction unbound [13] | fraction unbound [14] | Activity [15] [%] | inhibition at 1 µM (CYP3A4 [16]) [%] | inhibition at 10 µM (CYP3A4 [17]) [%] | concentration at 1 h [19] [µM] | inhibition [25] [%] | other results
1 | CC[C@H](NS(=O)(=O)c1ccc(-c2sc(CC(C)(C)C(=O)O)nc2CC2CCC2)c(C(F)F)c1F)C(F)(F)F | < 4 | 355 (≈ 208 µg/mL) | 3.8 | 32.7 | 2.9 | 1.7 | 7.6 | 112 | 2.5 | > 3 | > 3 | 0.003 | 0.002 | 8.9 | -1 | 3.4 | 52.1 | 68 | Activity [1]: 21%; IC50 (Cytochrome P450 2C9): 6.3 µM; IC50 (Cytochrome P450 2C8): 1.8 µM; concentration at 0.5 h [18]: 61.4 µM; concentration at 2 h [20]: 46.4 µM; concentration at 4 h [21]: 39.7 µM; concentration at 7 h [22]: 43.1 µM; concentration at 24 h [23]: 2.2 µM; inhibition [24]: 73%; inhibition [26]: 75%; inhibition [27]: 61%; inhibition [28]: 46%; inhibition [29]: 39%; Cmax [30]: 303 µg/mL; AUC [31]: 4710 µg·h/mL; Cmax [32]: 151 µg/mL; AUC [33]: 1790 µg·h/mL
2 | C[C@H](NS(=O)(=O)c1ccc(-c2sc(-c3nnc(C(C)(C)O)o3)nc2C(=O)N2CCC(F)(F)CC2)c(Cl)c1Cl)C(F)(F)F | 18 (≈ 12.2 µg/mL) | 35 (≈ 23.7 µg/mL) | 0.23 | 1.57 | 25 | 7.7 | 4.3 | 47 | 0.196 | > 3 | 2.47 | 0.077 | 0.058 | 8.5 | 8.1 | 26 | 10.2 | 84 | IC50 (Cytochrome P450 2C19): 6.7 µM; fraction unbound [34]: 0.095; concentration at 1 h [35]: 0.49 µM; inhibition [36]: 69%; Cmax [37]: 24.5 µg/mL; AUC [38]: 274 µg·h/mL; Cmax [39]: 3.16 µg/mL; AUC [40]: 51 µg·h/mL
